We go through 7 molecules from patent US4132731A, “Novel iodized isophthalamic acid compounds” (Schering Aktiengesellschaft, priority 1976, dated 1979).

Bounds are passed on as bounds.

Data set [1] can be described thus: general compatibility (LD50 i.v.) in rats. To be noted: rat, in vivo, iv.
In another data set the test system is rats. In words: neural compatibility: intracerebral compatibility / Valzelli value (ED50) in rats. The conditions noted are these: aqueous meglumine salt solutions, confidence range p 0.05.
Where [2] appears, read: rats, aqueous meglumine salt solutions.

Molecule `CC(=O)Nc1c(I)c(C(=O)O)c(I)c(C(=O)NCC(C)O)c1I` (centres unmarked) [Compound 7] came in with an LD50 in data set [1] of 18200 mg/kg. In addition, the “Valzelli Value (ED50) and Confidence Range” value with rats is reported as 50.7 (44.3-56.6) mg. I/kg.
Molecule `CC(=O)Nc1c(I)c(C(=O)O)c(I)c(C(=O)NCCO)c1I` [Compound 1, ioxithalamic acid, reference compound] yielded an LD50 in data set [1] of 15200 mg/kg. Also, in the data set with rats, the “Valzelli Value (ED50) and Confidence Range” value is 12.3 (10.3-14.4) mg. I/kg.
`COCC(=O)Nc1c(I)c(C(=O)O)c(I)c(C(=O)NCCCO)c1I` [Compound 4, N-(3-Hydroxypropyl)-2,4,6-triiodo-5-methoxyacetamidoisophthalamic Acid]: the 50% lethal dose (LD50) in data set [1] (setting [2]) amounted to 16300 mg/kg. In the data set with rats, the “Valzelli Value (ED50) and Confidence Range” value is listed as 43.1 (32.6-50.9) mg. I/kg.
The like results for `COCC(=O)Nc1c(I)c(C(=O)O)c(I)c(C(=O)NCCO)c1I` [Compound 5, N-(2-Hydroxyethyl)-2,4,6-triiodo-5-methoxyacetamidoisophthalamic Acid] were, in that order, greater than 18600 mg/kg and 44.9 (36.7-51,8) mg. I/kg.
The like results for `COCC(=O)Nc1c(I)c(C(=O)O)c(I)c(C(=O)NC(C)(C)CO)c1I` [Compound 2, N-(2-hydroxy-1,1-dimethylethyl)-2,4,6-triiodo-5-methoxyacetamidoisophthalamic acid] were, in that order, 20000 mg/kg and 71.4 (61.4-99.9) mg. I/kg.
In the case of `COCC(=O)Nc1c(I)c(C(=O)O)c(I)c(C(=O)NC(C)(C)CCO)c1I` [Compound 6, N-(3-hydroxy-1,1-dimethylpropyl)-2,4,6-triiodo-5-methoxyacetamidoisophthalamic acid], in data set [1] (setting [2]), the LD50 worked out at 18400 mg/kg. Besides, the “Valzelli Value (ED50) and Confidence Range” value with rats is 67.2 (58.7-84.8) mg. I/kg.
As to `COCC(=O)Nc1c(I)c(C(=O)O)c(I)c(C(=O)NCC(C)O)c1I` (centres unmarked) [Compound 3, N-(2-Hydroxypropyl)-2,4,6-triiodo-5-methoxyacetamidoisophthalamic Acid], the LD50 in data set [1] (setting [2]) is 19000 mg/kg. For the same molecule, the “Valzelli Value (ED50) and Confidence Range” value in the data set on rats is given as 44.6 (35.5-52.2) mg. I/kg.
